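48-hour exposure; five concentrations; linearly interpolated endpoints. The concentration for 50% growth inhibition is given as GI50. TGI: total growth inhibition.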
Experiments:
Test in all cases: DTP human tumour cell line panel, 48 h
[1] = tested on: MALME-3M melanoma
[2] = tested on: M14 melanoma
[3] = tested on: OVCAR-4 ovarian
[4] = tested on: RXF 393 renal
[5] = tested on: MDA-MB-435
[6] = tested on: T-47D breast
[7] = tested on: HOP-62 NSCLC
[8] = tested on: PC-3 prostate
[9] = tested on: U251 CNS
[10] = tested on: SK-MEL-28 melanoma
[11] = tested on: NCI-H226 lung
[12] = tested on: DU-145 prostate
[13] = tested on: SNB-75 CNS
[14] = tested on: SNB-19 CNS
[15] = tested on: CCRF-CEM leukemia
[16] = tested on: OVCAR-8 ovarian
[17] = tested on: BT-549 breast
[18] = tested on: SK-OV-3 ovarian
[19] = tested on: SR leukemia
[20] = tested on: COLO 205 colon
[21] = tested on: RPMI-8226 leukemia
[22] = tested on: SN12C renal
[23] = tested on: SF-539 CNS
[24] = tested on: SW-620 colon
[25] = tested on: OVCAR-5 ovarian
[26] = tested on: A498 renal
[27] = tested on: NCI-H522 lung
[28] = tested on: A549 NSCLC
[29] = tested on: ACHN renal

CCCC(=O)NC(c1ccc2c(c1)OC(F)(F)O2)c1cc(C)c2cccnc2c1O (configuration not stated)
GI50 [1]: 1080 nM | TGI [1]: > 26700 nM | GI50 [2]: 532 nM | TGI [2]: 3820 nM | GI50 [3]: 446 nM | TGI [3]: > 100000 nM | GI50 [4]: 3170 nM | TGI [4]: > 47300 nM | GI50 [5]: 1090 nM | TGI [5]: > 100000 nM | GI50 [6]: 504 nM | TGI [6]: > 100000 nM | GI50 [7]: 592 nM | TGI [7]: > 100000 nM | GI50 [8]: 651 nM | TGI [8]: > 100000 nM | GI50 [9]: 473 nM | TGI [9]: > 84600 nM | GI50 [10]: 637 nM | TGI [10]: > 100000 nM | GI50 [11]: 544 nM | TGI [11]: > 22800 nM | GI50 [12]: 1780 nM | TGI [12]: > 100000 nM | GI50 [13]: 685 nM | TGI [13]: 8430 nM | GI50 [14]: 825 nM | TGI [14]: > 100000 nM | GI50 [15]: 443 nM | TGI [15]: > 100000 nM | GI50 [16]: 406 nM | TGI [16]: > 100000 nM | GI50 [17]: 918 nM | TGI [17]: > 100000 nM | GI50 [18]: 510 nM | TGI [18]: > 67500 nM | GI50 [19]: 436 nM | TGI [19]: > 100000 nM | GI50 [20]: 1260 nM | TGI [20]: > 100000 nM | GI50 [21]: 727 nM | TGI [21]: > 100000 nM | GI50 [22]: 886 nM | TGI [22]: > 100000 nM | GI50 [23]: 666 nM | TGI [23]: 12000 nM | GI50 [24]: 695 nM | TGI [24]: > 100000 nM | GI50 [25]: 1730 nM | TGI [25]: > 100000 nM | GI50 [26]: > 74700 nM | TGI [26]: > 100000 nM | GI50 [27]: 326 nM | TGI [27]: > 32300 nM | GI50 [28]: 993 nM | TGI [28]: > 100000 nM | GI50 [29]: 406 nM

Reference: PubChem BioAssay (NCI)
